# Results from patent publication US20080207632A1, “PROTEIN KINASE INHIBITORS” (SUPERGEN, INC., priority 2006, published 2008).
# Read-outs that look alike come from different tables or passages of the source.
# Key:
# TT (medullary thyroid) = test: in vitro cytotoxicity assay (Cell-Titer-Glo), TT; type: cell-based
# Experimental: (§1) To evaluate cell killing of cancer cell lines, an in vitro cytotoxicity assay was performed. The tumor cell lines used were purchased from the American Type Culture Collection, and are identified as follows: Panc-1 (pancreas), MiaPaCa-2 (pancreas), MCF-7 (breast), HT-29 (colon), U2-OS (osteosarcoma), OVCAR-3 (ovary), HepG2 (hepatocellular carcinoma) and TT (medullary thyroid). The assay utilized the Cell-Titer-Glo Non-Radioactive Cell Proliferation Assay (Promega Corp., Madison, Wis.). First the cells were cultured in RPMI 1640 medium (Cat# 21870-076, Invitrogen Corporation) supplemented with 300 mg/L L-glutamine, 100 units/ml penicillin, 100 μg/ml streptomycin and 10% fetal bovine serum. All the cell lines were incubated in a humidified incubator at 37° C. with 5% CO2 atmosphere.
# Cells were plated at a density of 2000 to 10000 cells per well, depending on their growth rate, in 0.09 mL medium on day 0 in 96-well Microlite TCT microtiter plates (7418, Thermo Labsystems, Franklin, Mass.). On day 1, 10 μL of serial dilutions of the individual compounds were added to the plates in replicates of 3. After incubation for 4 days at 37° C. in a humidified incubator, the cells were lysed in the Cell-Titer-Glo reagent, which also contains luciferase enzyme. The luciferase reaction utilizes ATP released from lysed cells to produce light, the intensity of which is linearly related to the amount of ATP. Thus, the amount of light produced is a reflection of the number of cells remaining in the well after drug treatment. This luminescence was measured using a Luminoskan luminometer (Thermo Electron Corp., Vantaa, Finland) Data were expressed as the percentage of survival of control cells calculated from the luminescence corrected for background. The surviving percent of cells was determined by dividing the mean luminescence values of the treated wells by the mean luminescence values of the control and multiplying by 100.
# as §1, with “Briefly,” for “To evaluate cell killing of cancer cell lines, an in vitro cytotoxicity assay was performed. The”, “thyroid), PC-3 (prostate) and A549 (lung).” for “thyroid).”
# Cell culture-based assays can be used to evaluate the ability of compounds of the invention to inhibit one or more cellular activities, such as cancer cell growth and/or survival. Numerous cancer cell lines can be obtained from the American Type Culture Collection (ATCC) and other sources. Briefly, cells are seeded into 96-well, tissue-culture treated, opaque white plates (Thermo Electron, Vantaa, Finland), at between 5000 and 10000 cells per well, depending on the speed of cell proliferation, in 100 μl of appropriate growth medium (determined by the ATCC). Cells are then exposed to the appropriate concentration of drug or an equal amount of DMSO (drug diluent) and allowed to grow in its presence for 96 hours. Following this, 100 μl of Cell-Titer-Glo reagent (Promega, Inc., Madison, Wis.) is added to each well. Plates are then shaken for 2 minutes at room temperature to allow for cell lysis and incubated for 10 minutes to stabilize the luminescent signal. Similar to the Kinase-Glo assay reagent from Promega, this reagent contains both luciferase enzyme and its substrate luciferin. Luciferase, activated by ATP in the cell lysate, catalyzes the conversion of luciferin to oxyluciferin, a reaction which produces light. […]
# HT-29 cells = test: hollow fiber xenograft model (MTT), HT-29; type: in vivo, athymic nude mice; settings: HT-29 fibers implanted IP
# Experimental: Compound 2-3 was tested against three tumor types in athymic nude mice using the hollow fiber xenograft model. After incubation and growth overnight, drug-permeable fibers containing tumor cells were surgically implanted either intraperitoneally (IP) or subcutaneously (SC) and allowed to grow for 24-hours. After treatment with compound 2-3, fibers were removed and tumor cell growth was measured using the MTT assay. A549, Panc-1 or HT-29 cells were injected into separate fibers and each mouse received a fiber containing each cell line both SC and IP totaling six fibers per mouse.
# Axl kinase = biological target: T1, Axl kinase (Homo sapiens, UniProt P30530); test: Axl kinase inhibition assay (Kinase-Glo); type: biochemical; settings: 3 μM ATP
# T1 construct: purchased BPS Bioscience Inc, San Diego Calif
# T1 sequence (P30530 26-894): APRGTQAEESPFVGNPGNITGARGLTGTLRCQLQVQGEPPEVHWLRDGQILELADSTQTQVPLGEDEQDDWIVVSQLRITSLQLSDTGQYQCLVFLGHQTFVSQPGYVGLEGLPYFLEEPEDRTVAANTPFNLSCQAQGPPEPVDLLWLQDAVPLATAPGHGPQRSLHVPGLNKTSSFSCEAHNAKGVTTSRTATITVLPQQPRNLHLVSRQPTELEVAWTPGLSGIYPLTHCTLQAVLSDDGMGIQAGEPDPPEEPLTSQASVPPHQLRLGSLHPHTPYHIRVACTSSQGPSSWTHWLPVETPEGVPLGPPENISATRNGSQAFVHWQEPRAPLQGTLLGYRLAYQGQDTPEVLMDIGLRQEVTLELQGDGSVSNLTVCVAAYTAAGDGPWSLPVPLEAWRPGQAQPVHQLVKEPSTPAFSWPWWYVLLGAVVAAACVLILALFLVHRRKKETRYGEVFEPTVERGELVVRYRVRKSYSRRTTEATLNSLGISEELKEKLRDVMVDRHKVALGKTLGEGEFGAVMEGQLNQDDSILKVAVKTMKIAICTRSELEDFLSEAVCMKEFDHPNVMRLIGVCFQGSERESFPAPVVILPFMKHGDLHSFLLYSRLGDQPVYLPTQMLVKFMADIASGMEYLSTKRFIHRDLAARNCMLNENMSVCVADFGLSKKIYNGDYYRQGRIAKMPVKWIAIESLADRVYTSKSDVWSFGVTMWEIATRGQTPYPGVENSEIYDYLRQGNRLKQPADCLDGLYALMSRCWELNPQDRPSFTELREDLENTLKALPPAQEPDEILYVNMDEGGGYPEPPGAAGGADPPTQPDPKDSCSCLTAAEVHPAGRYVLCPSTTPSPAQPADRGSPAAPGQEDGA
# Experimental: One illustrative manner in which Axl kinase activity can be determined is by quantifying the phosphorylation of a known Axl substrate in an in vitro assay. In this assay kinase activity is determined by quantifying the amount of ATP remaining in solution following the kinase reaction by measuring the relative light units (RLU) produced by luciferase using a luminometer. Percent activity was determined for individual compounds by comparing luminometer readings of drug-treated reactions to controls containing no drug (RLUNO Inhib) and no […] enzyme (RLUNO Kinase) in the following equation: […]
# In a 50 μl reaction, 200 ng/μl of Axl kinase (BPS Bioscience Inc, San Diego Calif.) was incubated at 30° C. for two hours with shaking (360 rpm) with 10 μg/ml Poly (Glu:Tyr) substrate (BPS Bioscience Inc, Calif.), 3 μM ATP. (Invitrogen, Carlsbad, Calif.) and kinase reaction buffer (40 mM MOPS, 75 mM MgCl2 and 0.1 mM EDTA). The value of 3 μM ATP was determined to be the Km (concentration at which the enzyme is working at 50% maximum velocity) for the amount of enzyme used in this assay. […] Kinase activity is determined by quantifying the amount of ATP remaining in solution following the kinase reaction by measuring the relative light units (RLU) produced by luciferase using a luminometer (Thermo Electron Corporation, Vantaa, Finland).
# [1] = 96 h, Example 20, 4 days, read-out: Cell-based IC50 values TT
Compound,IC50 (TT (medullary thyroid); [1]) [µM],also measured
COc1cc2[nH]c3ncnc(N4CCN(C(=S)Nc5ccc(S(C)(=O)=O)cc5)CC4)c3c2cc1OC [Compound 1-115],38.6,–
"COc1cc2[nH]c3ncnc(N4CCN(C(=S)Nc5ccc(S(=O)(=O)Nc6ccc(F)cc6)cc5)CC4)c3c2cc1OC [Compound 2-3, 4-(6,7-dimethoxy-9H-pyrimido[4,5-b]indol-4-yl)-N-(4-(N-(4-fluorophenyl)sulfamoyl)phenyl)piperazine-1-carbothioamide]",–,tumor cell growth in fibers (HT-29 cells; 20 mg/kg intravenous): 53.8%; tumor cell growth in fibers (HT-29 cells; 40 mg/kg intravenous): 73.4%
"COc1cc2[nH]c3ncnc(N4CCN(C(=S)Nc5ccc(S(=O)(=O)NC(C)=O)cc5)CC4)c3c2cc1OC [Compound 1-2, 4-(6,7-Dimethoxy-9H-pyrimido[4,5-b]indol-4-yl)-piperazine-1-carbothioic acid (4-acetylsulfamoyl-phenyl)-amide]",64,–
"CC(=O)NS(=O)(=O)c1ccc(NC(=S)N2CCN(c3ncnc4[nH]c5cc(C(F)(F)F)c(Cl)cc5c34)CC2)cc1 [Compound 1-1, 4-(6-Chloro-7-trifluoromethyl-9H-pyrimido[4,5-b]indol-4-yl)-piperazine-1-carbothioic acid (4-acetylsulfamoyl-phenyl)-amide]",11,"IC50 (TT (medullary thyroid); 96 h, Example 18, 4 days, read-out: calculated IC50 TT): 51.7 µM; IC50 (TT (medullary thyroid); Table 10, 96 hours, read-out: IC50 TT (inhibit cell growth to 50% of untreated)): 51.7 µM; IC50 (Axl kinase): 9.8 µM"
"CC(=O)NS(=O)(=O)c1ccc(NC(=S)N2CCN(c3ncnc4[nH]c5ccc(Cl)cc5c34)CC2)cc1 [Compound 1-3, 4-(6-chloro-9H-pyrimido[4,5-b]indol-4-yl)-piperazine-1-carbothioic acid (4-acetylsulfamoyl-phenyl)-amide]",13.2,–
COc1cc2[nH]c3ncnc(N4CCN(C(=S)Nc5ccc(NC(C)=O)cc5)CC4)c3c2cc1OC [Compound 1-42],129,–
COc1cc2[nH]c3ncnc(N4CCN(C(=S)Nc5ccc(NC(=O)C6CC6)cc5)CC4)c3c2cc1OC [Compound 1-34],99.1,–
COc1cc2[nH]c3ncnc(N4CCN(C(=S)Nc5ccc(S(N)(=O)=O)cc5)CC4)c3c2cc1OC [Compound 1-107],147,–
